The values that follow come from patent publication US7482344B2, “Tricyclic steroid hormone nuclear receptor modulators” (Eli Lilly and Company, priority 2003, dated 2009).

Some results are limits rather than exact numbers.

Series [1] concerns the target T1, MR (Homo sapiens, UniProt P08235).
T1 sequence (P08235 1-984): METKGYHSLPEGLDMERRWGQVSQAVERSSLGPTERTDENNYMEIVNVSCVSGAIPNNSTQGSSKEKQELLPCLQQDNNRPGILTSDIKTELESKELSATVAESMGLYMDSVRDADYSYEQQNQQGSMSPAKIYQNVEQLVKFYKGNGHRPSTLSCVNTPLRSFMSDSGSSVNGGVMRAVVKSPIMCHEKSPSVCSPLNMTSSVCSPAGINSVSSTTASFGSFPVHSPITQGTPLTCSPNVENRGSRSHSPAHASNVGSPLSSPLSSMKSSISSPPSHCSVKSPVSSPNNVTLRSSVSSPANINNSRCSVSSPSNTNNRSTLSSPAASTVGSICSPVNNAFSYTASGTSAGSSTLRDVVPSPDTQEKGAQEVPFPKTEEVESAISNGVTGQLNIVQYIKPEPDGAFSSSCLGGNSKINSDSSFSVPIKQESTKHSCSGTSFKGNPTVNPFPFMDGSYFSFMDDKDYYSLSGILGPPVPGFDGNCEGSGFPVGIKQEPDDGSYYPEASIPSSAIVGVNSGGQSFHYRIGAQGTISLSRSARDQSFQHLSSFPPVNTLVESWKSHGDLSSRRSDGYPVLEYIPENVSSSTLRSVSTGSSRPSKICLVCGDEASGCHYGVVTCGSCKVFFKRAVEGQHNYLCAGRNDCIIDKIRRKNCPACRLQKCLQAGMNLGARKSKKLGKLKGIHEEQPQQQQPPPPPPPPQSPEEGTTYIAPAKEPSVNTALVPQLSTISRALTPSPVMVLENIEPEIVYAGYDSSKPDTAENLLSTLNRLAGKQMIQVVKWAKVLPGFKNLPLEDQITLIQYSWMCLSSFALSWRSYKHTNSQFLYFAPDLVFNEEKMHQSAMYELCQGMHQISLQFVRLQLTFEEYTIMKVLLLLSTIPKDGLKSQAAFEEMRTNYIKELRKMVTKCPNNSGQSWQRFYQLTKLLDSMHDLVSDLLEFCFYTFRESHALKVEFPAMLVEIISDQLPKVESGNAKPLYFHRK
Description: Mineralocorticoid Receptor Binding Assay (Method 1), [3H]-aldosterone competition. Set-up: The full length human MR gene is cloned from a human kidney or human brain cDNA library; made in house; host or cells: SF9 insect cells (pAcHLT baculovirus transfer vector). Conditions: human MR expressed in Sf9 cells, 0.5 nM [3H]-aldosterone. As for the experimental part: Mineralocorticoid Receptor Binding Assay (Method 1):
The full length human MR gene is cloned from a human kidney or human brain cDNA library. Briefly, using synthetic oligonucleotide primers (Eli Lilly and Company, Indianapolis) directed to nucleotides 20-54 and 3700-3666 of the human MR, polymerase chain reaction (PCR) is performed under standard conditions using a human cDNA library. The PCR reaction is performed in a final volume of 50 μl containing about 1μl of a 50× stock solution of polymerase; about 1 μl of a 50× stock solution of dNTP; about 5μl of an appropriate PCR buffer; about 1 μl of each primer; about 5 μl of a H. kidney or H. brain cDNA library; and about 36 μl of water. The reaction is allowed to denature for about 30 seconds at 95 degrees Celsius, anneal for about 30 seconds at 55 degrees Celsius, and extend for about 5 minutes at 72 degrees Celsius, the sequence being repeated for a total of about 35 cycles. The desired PCR product (3.68 Kb) is confirmed by gel electrophoresis and subsequently cut from the gel and stored at about −20 degrees Celsius until extraction. To extract the cDNA product from the agarose gel, the QIAEX II Gel Extraction protocol (QIAGEN, Inc.) is employed according to the manufacturer's instructions. Following extraction, the MR cDNA is cloned into an appropriate cloning vector (Zero Blunt TOPO PCR Cloning Kit (Invitrogen, Inc.) and a pAcHLT-baculovirus transfer vector (B.D./Pharminogen), then expressed in SF9 insect cells, essentially according to manufacturer's instructions. Sf9 cells are grown at a scale where gram quantity cell pellets are obtained for subsequent use in the MR binding assay. Harvested cell pellets are lysed by repeated freeze-thaw cycles (about 4) in a suitable lysis buffer then centrifuged at about 1×10^3G (with the supernatant being saved for future assays).
MR binding assays are performed in a final total volume of about 250 μl containing about 20-25 μg of protein and 0.5 nM of [^3H]-aldosterone plus varying concentrations of test compound or vehicle. The assay binding buffer consists of 30 mM sodium molybdate, 30 mM of TRIS-HCl, 5 mM sodium phosphate, 5 mM sodium pyrophosphate, and about 10% glycerol, pH=7.5.
Briefly, assays are prepared at RT in 96-well Falcon 3072 plates, each well containing 210 μof binding buffer, 10 μl of […], 10 μl of test compound/vehicle, and 20 μl of the resuspended receptor protein extract. Incubations are carried out at 4 degrees Celsius with shaking for about 16 hours. 200 μl aliquots of each incubation are filtered onto Millipore HA 0.45 micron 96-well filter plates, pre-moistened with cold 30 mM TRIS-HCl. The filter plates are suctioned dry with vacuum and immediately washed 3× with cold 30 mM TRIS-HCl. The plates are then punched out and the amount of receptor-ligand complex is determined by liquid scintillation counting using 4 ml of Ready Protein Plus™ liquid scintillation cocktail.

Another series concerns the target T2, glucocorticoid receptor (Homo sapiens, UniProt P04150).
T2 construct: host or cells: A549 human lung epithelial cells
T2 sequence (P04150 1-777): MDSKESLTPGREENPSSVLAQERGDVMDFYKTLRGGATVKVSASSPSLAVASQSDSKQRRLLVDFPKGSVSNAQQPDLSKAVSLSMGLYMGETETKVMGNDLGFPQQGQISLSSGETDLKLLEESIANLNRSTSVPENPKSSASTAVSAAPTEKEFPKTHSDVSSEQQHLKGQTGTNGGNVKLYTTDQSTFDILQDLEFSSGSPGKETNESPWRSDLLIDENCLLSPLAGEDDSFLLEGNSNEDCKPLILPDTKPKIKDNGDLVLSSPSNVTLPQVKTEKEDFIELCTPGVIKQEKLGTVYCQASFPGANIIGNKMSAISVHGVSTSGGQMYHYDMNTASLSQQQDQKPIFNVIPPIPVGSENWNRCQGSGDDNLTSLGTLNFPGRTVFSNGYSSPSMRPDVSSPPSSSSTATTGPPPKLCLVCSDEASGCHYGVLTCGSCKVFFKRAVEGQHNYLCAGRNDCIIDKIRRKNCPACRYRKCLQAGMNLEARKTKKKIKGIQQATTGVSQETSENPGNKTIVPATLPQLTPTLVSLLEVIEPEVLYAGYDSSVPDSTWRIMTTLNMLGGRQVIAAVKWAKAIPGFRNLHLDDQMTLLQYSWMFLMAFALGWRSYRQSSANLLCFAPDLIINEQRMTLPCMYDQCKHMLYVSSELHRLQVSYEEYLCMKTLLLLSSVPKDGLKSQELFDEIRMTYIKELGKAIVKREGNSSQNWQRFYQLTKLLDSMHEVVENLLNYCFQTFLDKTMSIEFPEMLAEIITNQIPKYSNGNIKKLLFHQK
Kind of series: Glucocorticoid Receptor Binding Assay (Method 1), [3H]-dexamethasone competition in A549 cell extract. Conditions: 1.86 nM [3H]-dexamethasone, read-out: GR Ki (nM) Method 1. As for the experimental part:
Glucocorticoid Receptor Binding Assay (Method 1):
A549 human lung epithelial cells (ATCC) are grown at a scale where gram quantity cell pellets are obtained. Harvested cell pellets are washed twice in cold phosphate buffered saline, centrifuged, and resuspended in cold assay binding buffer. The assay binding buffer consists of 10% glycerol, 50 mM Tris-HCl (pH7.2), 75 mM sodium chloride, 1.5 mM magnesium chloride, 1.5 mM EDTA, and 10 mM sodium molybdate. Cell suspensions were lysed via sonication, centrifuged, and the “extract” supernatant is snap frozen and stored at −80 C. until needed.
GR binding assays are performed in a final volume of 140 ul containing 50-200 ug of A549 cell extract and 1.86 nM [^3H]-dexamethasone (Amersham) plus varying concentrations of test compound or vehicle. Briefly, assays are prepared at RT in 96-well Fisher 3356 plates, each well containing 100 ul of A549 cell extract, 20 ul of [^3H]-dexamethasone, and 20 ul of test compound/vehicle. Incubations are carried out at 4 degrees Celsius for 16 hours. After incubation, 70 ul of 3× dextran-coated charcoal solution is added to each reaction, mixed, and incubated for 8 minutes at RT. 3×-dextran-coated charcoal solution consists of 250 ml assay binding buffer, 3.75 g Norit A charcoal (Sigma), and 1.25 g dextran T-70 (Amersham). Charcoal/unbound radioligand complexes are removed by centrifugation of the plate and 140 ul of supernatant from each well is transferred to another 96 well Optiplate (Packard Instruments). 200 ul of Microscint-20 scinillant (Packard Instruments) is added to each well and amount of receptor bound radioligand is determined using Packard Instruments TopCount instrument.

In series [2] the target is T1, MR. Also on record: host or cells: patients with advanced CHF. Conditions: in combination with standard CHF therapy, patients suffering from advanced CHF; cited from earlier work.

As for `CC(C)n1c(=O)[nH]c2cc(C=C3c4ccccc4Sc4ccccc43)ccc21` [Example 16], the Ki (in general, a measure of affinity in units of concentration, obtained from inhibition or displacement) at MR [1] is less than 500 nM. Same read-out and setting: as for `O=c1[nH]c2cc(C=C3c4ccccc4Sc4ccccc43)ccc2n1-c1cccnc1` [Example 17], the figure is less than 500 nM. Regarding `COc1cccc(C=C2c3ccccc3Cc3ccccc32)c1` [Example 18, 9-(3-Methoxy-benzylidene)-9,10-dihydro-anthracene], the Ki is less than 500 nM on MR [1] and less than 10000 nM at glucocorticoid receptor. In the case of `Oc1cccc(C=C2c3ccccc3Cc3ccccc32)c1` [Example 19, 3-(10H-Anthracen-9-ylidenemethyl)-phenol], the melting point (as a rule, the temperature of the solid-liquid transition) worked out at 195.8 °C. The compound further came in with a Ki at MR [1] of less than 500 nM. Further, at glucocorticoid receptor, the Ki was less than 10000 nM. In the case of `CS(=O)(=O)Nc1cccc(C=C2c3ccccc3Oc3ccccc32)c1` [Example 20, N-(3-Xanthen-9-ylidenemethyl-phenyl)-methanesulfonamide], the values for the Ki at MR [1] and on glucocorticoid receptor were less than 500 nM and less than 1000 nM, respectively. For `CC(=O)S[C@@H]1CC2=CC(=O)CC[C@]2(C)[C@H]2CC[C@@]3(C)[C@@H](CC[C@@]34CCC(=O)O4)[C@H]12` [spironolactone], on MR [2], the “reduced cardiac related mortality” value was 30% and the “reduced frequency of hospitalization” value is reported as 35%.
